Consider 39 molecules from ChEMBL document CHEMBL3739386, “Synthesis and biological evaluation of picolinamides and thiazole-2-carboxamides as mGluR5 (metabotropic glutamate receptor 5) antagonists” (Bioorg Med Chem Lett, 2016).

Data set [1] addresses T1, Metabotropic glutamate receptor 5 (Homo sapiens, UniProt P41594). Put plainly: Antagonist activity at mGlu5 receptor (unknown origin) expressed in HEK cells assessed as inhibition of glutamate-induced calcium flux at 1 uM by fluorescence based assay. The class given is functional, cell-based. The conditions noted are these: HEK293.
Target sequence in this assay (P41594 21-1212 limits assumed): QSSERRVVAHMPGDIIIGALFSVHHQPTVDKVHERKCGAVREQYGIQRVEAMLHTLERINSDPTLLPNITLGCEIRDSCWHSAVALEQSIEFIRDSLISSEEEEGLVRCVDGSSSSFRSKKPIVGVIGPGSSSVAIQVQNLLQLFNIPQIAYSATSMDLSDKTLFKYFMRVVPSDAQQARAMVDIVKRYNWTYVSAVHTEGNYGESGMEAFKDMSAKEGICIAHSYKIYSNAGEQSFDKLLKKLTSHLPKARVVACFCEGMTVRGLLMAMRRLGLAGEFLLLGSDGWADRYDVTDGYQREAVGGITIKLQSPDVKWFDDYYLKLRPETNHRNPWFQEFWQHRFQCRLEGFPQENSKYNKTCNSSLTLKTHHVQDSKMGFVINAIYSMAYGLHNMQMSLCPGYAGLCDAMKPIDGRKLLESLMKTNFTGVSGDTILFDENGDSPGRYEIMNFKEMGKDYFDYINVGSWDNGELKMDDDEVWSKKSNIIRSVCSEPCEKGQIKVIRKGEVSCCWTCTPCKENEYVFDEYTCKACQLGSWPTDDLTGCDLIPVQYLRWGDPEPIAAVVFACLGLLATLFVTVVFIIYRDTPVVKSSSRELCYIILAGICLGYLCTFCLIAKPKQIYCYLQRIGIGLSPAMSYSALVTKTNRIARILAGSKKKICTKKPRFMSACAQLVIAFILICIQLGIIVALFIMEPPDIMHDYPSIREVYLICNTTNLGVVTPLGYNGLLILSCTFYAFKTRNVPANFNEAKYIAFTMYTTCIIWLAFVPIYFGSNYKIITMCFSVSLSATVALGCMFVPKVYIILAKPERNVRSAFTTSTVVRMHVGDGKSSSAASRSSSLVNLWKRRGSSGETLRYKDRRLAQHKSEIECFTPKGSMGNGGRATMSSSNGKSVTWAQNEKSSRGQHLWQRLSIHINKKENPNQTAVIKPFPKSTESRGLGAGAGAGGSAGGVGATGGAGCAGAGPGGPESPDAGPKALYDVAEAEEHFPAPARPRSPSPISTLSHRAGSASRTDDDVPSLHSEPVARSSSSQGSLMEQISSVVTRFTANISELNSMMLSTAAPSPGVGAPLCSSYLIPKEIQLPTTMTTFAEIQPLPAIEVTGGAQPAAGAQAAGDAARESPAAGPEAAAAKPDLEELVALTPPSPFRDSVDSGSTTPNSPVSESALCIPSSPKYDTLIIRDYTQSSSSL
The target of data set [2] is T1, Metabotropic glutamate receptor 5. Description: Antagonist activity at mGlu5 receptor (unknown origin) expressed in HEK cells assessed as inhibition of glutamate-induced calcium flux at 10 uM by fluorescence based assay. The format is functional, cell-based. The conditions noted are these: HEK293. In general terms: Calcium flux is commonly read through the fluorescence of an indicator in the cells.
Target sequence in this assay (P41594 21-1212 limits assumed): as above

Data set [3] has the same target. Put plainly: Antagonist activity at mGlu5 receptor (unknown origin) expressed in HEK cells assessed as inhibition of glutamate-induced calcium flux by fluorescence based assay. The class given is functional, cell-based, HEK293.
Target sequence in this assay (P41594 whole entry): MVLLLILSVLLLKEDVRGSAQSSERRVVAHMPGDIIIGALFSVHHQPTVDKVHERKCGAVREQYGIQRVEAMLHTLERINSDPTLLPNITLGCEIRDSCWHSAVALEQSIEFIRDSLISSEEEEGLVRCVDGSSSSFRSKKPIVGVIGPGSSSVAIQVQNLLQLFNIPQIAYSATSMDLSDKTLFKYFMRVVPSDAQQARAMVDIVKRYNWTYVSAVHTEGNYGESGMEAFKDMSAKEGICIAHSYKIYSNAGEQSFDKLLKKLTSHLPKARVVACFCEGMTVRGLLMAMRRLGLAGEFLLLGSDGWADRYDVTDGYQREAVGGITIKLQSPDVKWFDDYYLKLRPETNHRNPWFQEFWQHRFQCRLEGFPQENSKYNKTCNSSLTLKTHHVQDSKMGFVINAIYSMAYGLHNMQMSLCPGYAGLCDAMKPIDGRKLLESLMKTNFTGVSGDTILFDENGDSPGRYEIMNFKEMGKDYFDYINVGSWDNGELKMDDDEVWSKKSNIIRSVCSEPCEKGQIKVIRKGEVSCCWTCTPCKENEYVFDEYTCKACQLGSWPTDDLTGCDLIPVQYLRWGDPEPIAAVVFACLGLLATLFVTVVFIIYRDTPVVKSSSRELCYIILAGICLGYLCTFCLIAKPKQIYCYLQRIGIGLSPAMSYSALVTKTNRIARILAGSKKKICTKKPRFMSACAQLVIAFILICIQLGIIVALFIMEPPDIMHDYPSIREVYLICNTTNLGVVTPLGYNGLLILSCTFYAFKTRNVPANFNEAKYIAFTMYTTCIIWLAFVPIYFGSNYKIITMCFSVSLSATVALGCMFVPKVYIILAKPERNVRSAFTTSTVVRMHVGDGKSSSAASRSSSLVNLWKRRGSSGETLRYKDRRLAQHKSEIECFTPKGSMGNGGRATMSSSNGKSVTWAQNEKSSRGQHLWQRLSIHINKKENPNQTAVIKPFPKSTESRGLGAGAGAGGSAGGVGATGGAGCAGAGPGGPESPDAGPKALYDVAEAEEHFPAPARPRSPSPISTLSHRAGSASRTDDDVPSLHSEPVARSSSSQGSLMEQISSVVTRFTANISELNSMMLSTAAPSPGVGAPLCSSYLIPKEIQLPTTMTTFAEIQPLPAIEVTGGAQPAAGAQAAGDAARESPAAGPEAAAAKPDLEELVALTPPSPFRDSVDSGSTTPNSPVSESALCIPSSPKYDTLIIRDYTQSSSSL
Data set [4] is described as follows: Metabolic stability in human liver microsomes assessed as compound remaining at 1 uM after 30 mins. The format is ADME. The conditions noted are these: read-out: Stability. Background: Liver microsomes are a subcellular fraction often used to study metabolism.
In data set [5] the target is T2, hERG (KCNH2) (Homo sapiens, UniProt Q12809). Description: Inhibition of human ERG at 1 uM by patch-clamp method. (In general: In patch-clamp work, channel activity is measured electrically.)
T2 sequence (Q12809 whole entry): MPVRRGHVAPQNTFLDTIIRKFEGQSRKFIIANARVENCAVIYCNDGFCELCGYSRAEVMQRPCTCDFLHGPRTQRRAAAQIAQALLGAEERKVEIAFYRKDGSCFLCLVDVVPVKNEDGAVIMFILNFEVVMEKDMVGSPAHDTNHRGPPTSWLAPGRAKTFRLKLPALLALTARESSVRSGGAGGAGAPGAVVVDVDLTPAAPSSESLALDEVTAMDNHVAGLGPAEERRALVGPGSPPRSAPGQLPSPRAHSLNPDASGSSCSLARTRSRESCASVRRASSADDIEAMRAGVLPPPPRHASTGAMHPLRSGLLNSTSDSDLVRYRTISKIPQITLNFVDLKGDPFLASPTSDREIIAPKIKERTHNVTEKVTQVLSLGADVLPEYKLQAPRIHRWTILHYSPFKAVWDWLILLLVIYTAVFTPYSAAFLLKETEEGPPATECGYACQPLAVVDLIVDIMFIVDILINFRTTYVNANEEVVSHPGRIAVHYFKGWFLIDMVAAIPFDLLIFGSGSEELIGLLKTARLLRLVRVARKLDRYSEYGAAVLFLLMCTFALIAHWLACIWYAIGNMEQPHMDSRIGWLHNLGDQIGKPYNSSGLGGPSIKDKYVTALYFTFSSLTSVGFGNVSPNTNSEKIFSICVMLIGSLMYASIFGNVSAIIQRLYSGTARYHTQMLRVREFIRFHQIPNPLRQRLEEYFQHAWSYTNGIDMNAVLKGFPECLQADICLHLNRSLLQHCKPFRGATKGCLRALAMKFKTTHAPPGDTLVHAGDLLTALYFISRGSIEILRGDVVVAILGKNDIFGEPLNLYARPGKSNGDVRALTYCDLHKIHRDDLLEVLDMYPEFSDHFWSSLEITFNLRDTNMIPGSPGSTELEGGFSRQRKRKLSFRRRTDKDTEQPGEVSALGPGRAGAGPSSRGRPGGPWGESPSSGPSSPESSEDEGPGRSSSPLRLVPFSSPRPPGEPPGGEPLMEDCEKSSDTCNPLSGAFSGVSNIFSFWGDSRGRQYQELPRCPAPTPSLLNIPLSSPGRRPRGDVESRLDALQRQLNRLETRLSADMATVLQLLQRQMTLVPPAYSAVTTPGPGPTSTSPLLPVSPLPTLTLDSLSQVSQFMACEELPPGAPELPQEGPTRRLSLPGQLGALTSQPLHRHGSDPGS
For data set [6], the target named is T2, hERG (KCNH2). Description: Inhibition of human ERG at 10 uM by patch-clamp method.
In another data set the target is CYP2C19 (Homo sapiens, UniProt P33261). Description: Inhibition of human CYP2C19 assessed as remaining activity at 10 uM. The conditions noted are these: read-out: Activity. The format is ADME.
CYP2C19, sequence (P33261 whole entry): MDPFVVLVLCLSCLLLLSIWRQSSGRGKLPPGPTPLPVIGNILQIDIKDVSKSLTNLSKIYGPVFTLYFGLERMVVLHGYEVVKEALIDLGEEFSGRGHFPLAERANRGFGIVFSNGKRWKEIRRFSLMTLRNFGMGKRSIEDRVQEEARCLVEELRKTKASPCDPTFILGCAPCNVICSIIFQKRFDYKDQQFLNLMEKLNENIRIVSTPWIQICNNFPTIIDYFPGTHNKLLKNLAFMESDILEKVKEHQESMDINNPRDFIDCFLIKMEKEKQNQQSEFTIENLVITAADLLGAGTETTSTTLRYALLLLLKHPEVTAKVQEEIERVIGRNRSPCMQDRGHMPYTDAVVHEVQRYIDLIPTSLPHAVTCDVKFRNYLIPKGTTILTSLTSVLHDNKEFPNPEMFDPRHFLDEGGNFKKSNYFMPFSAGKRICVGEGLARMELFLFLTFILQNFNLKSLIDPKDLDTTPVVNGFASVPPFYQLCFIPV
In data set [7] the target is T2, hERG (KCNH2). Put plainly: Inhibition of human ERG at 0.1 uM by patch-clamp method.
Another data set deals with CYP2C9 (Homo sapiens, UniProt P11712). Put plainly: Inhibition of human CYP2C9 assessed as remaining activity at 10 uM. The class given is ADME. The conditions noted are these: read-out: Activity.
In another data set the target is T3, CYP1A2 (Homo sapiens, UniProt P05177).
T3 sequence (P05177 whole entry): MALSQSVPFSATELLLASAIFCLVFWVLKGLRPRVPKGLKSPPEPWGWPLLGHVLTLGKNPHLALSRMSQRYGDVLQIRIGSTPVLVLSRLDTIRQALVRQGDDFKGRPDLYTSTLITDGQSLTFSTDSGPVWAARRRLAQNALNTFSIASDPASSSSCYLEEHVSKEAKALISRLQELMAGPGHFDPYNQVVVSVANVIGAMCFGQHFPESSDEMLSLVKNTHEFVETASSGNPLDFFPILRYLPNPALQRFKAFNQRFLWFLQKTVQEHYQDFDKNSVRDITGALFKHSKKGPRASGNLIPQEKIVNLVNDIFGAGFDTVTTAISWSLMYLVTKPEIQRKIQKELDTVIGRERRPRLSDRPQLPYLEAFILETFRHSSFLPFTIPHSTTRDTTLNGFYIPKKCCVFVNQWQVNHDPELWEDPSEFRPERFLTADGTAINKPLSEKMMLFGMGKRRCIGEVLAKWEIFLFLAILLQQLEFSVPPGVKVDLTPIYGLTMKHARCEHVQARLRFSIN
Description: Inhibition of human CYP1A2 assessed as remaining activity at 10 uM. The format is ADME. The conditions noted are these: read-out: Activity.

The next data set deals with CYP3A4 (Homo sapiens, UniProt P08684). Put plainly: Inhibition of human CYP3A4 assessed as remaining activity at 10 uM. The conditions noted are these: read-out: Activity. The class given is ADME.
CYP3A4, sequence (P08684 whole entry): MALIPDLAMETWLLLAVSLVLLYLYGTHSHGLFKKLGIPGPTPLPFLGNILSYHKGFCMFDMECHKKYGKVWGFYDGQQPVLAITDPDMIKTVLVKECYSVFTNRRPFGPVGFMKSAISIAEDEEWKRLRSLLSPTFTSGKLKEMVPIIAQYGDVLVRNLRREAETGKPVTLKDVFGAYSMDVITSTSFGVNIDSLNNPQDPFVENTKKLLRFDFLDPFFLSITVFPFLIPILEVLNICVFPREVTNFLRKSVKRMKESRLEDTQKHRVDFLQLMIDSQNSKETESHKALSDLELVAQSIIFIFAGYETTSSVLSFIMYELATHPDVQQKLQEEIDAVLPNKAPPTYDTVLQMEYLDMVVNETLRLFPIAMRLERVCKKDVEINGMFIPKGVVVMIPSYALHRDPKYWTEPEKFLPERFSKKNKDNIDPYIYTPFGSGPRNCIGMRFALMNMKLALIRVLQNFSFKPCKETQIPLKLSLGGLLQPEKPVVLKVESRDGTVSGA
The target of the next data set is CYP2D6 (Homo sapiens, UniProt P10635). Description: Inhibition of human CYP2D6 assessed as remaining activity at 10 uM. The class given is ADME. The conditions noted are these: read-out: Activity.
CYP2D6, sequence (P10635 whole entry): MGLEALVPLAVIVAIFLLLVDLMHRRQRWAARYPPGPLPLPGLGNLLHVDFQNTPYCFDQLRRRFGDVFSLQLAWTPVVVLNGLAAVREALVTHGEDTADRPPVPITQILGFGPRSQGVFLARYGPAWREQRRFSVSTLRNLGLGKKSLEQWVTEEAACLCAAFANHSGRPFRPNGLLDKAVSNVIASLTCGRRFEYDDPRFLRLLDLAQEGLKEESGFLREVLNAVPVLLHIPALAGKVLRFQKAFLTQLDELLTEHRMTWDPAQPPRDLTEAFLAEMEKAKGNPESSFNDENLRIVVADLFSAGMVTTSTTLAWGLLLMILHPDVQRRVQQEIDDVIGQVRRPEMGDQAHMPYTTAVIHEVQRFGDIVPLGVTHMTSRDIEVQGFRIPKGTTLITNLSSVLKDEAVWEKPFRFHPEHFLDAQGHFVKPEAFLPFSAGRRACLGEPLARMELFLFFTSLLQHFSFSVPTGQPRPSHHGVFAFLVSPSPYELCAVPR

By inhibition is commonly meant the relative decrease from the control value, in per cent. On to `O=C(Nc1ccccn1)c1ccccn1`, for which the inhibition came out at 34.5% in data set [1] and 65.5% in data set [2]. `Cc1cccc(C(=O)Nc2cccc(Cl)c2)n1`: the inhibition came out at 10.5% in data set [1] and 52.1% in data set [2]. Take `N#Cc1csc(C(=O)Nc2cccc(Cl)c2)n1`: in data set [1], the inhibition is -7.3%. Same read-out and setting: the same measure for `N#Cc1csc(C(=O)Nc2cccc(Br)c2)n1`: 19.5%; for `Cc1csc(C(=O)Nc2cccc(C#N)c2)n1`: 16.6%. Still for that read-out and setting: the same measure for `Cc1csc(C(=O)Nc2cccc(Cl)c2)n1`: 32.2%. `Cc1ccnc(Cl)c1NC(=O)c1ccccn1`: the inhibition was found to be 16.1% in data set [1] and 17.7% in data set [2]. The corresponding values for `O=C(Nc1cc(Cl)cnc1Cl)c1ccccn1` are 13.8% and 51%. For the molecule `N#Cc1cccc(NC(=O)c2nc(Br)cs2)n1`, the inhibition in data set [1] turned out to be 9.6%. On to `Cc1cccc(NC(=O)c2nc(C)cs2)c1`, for which the inhibition in data set [1] was determined as 11.6%. Same read-out and setting: for `Cc1cccc(NC(=O)c2nc(C)cs2)n1` the value was 50.1%.

`N#Cc1csc(C(=O)Nc2cccc(F)n2)n1`: the inhibition in data set [1] is -0.4%.

Consider `O=C(Nc1cccc(Cl)c1)c1nc(Br)cs1`, for which the inhibition in data set [1] was determined as 58.1%. Take `Cc1cccc(NC(=O)c2nc(C#N)cs2)n1`: the inhibition in [1] was determined as 24.7%. In general, IC50 refers to the concentration that gives 50% inhibition. For the molecule `Cc1cccc(NC(=O)c2nc(Br)cs2)n1`, in [3], the IC50 is 159 nM. Also, the remaining at 0.5 h, 1 µM in data set [4] worked out at 7.25%. Besides, the inhibition at 1 µM at hERG (KCNH2) [5] was determined as 19.4%. For the same molecule, the inhibition at 10 µM against hERG (KCNH2) [6] was 34.8%. Also, in [1], the inhibition is 81%. Also, the activity at 10 µM is 7.4% on CYP2C19; 88.2% at CYP2C9; 11% on CYP1A2; 87.3% on CYP3A4; 99.2% on CYP2D6. Moreover, the inhibition at 0.1 µM against hERG (KCNH2) [7] stood at 15%. As for `O=C(Nc1cccnc1)c1cccc(Cl)n1`, the inhibition turned out to be 19.1% in data set [1] and 33.4% in [2].

Turning to `Cc1csc(C(=O)Nc2cccc(Br)c2)n1`, the inhibition in [1] is 18%. As for `O=C(Nc1cccc(Cl)c1)c1cccc(F)n1`, the inhibition turned out to be 13.1% in data set [1] and 33.4% in data set [2].

In the case of `O=C(Nc1cccc(F)n1)c1nc(Br)cs1`, the inhibition in [1] is 27.6%. Turning to `Cc1cccc(NC(=O)c2nc(Br)cs2)c1`, the inhibition in data set [1] worked out at 40.9%. `O=C(Nc1ccc(Cl)cn1)c1ccccn1`: the results for the inhibition in [1] and in data set [2] were 16.2% and 30.7%, respectively. `Cc1ccnc(Cl)c1NC(=O)c1cccc(Cl)n1`: the inhibition came to 15.7% in [1] and 18.6% in [2]. For `N#Cc1cccc(NC(=O)c2nc(Br)cs2)c1`, the inhibition in [1] was -0.1%. For `COc1ccc(NC(=O)c2ccccn2)cn1`, the values for the inhibition in data set [1] and in data set [2] were 14% and 25.5%, respectively. As to `O=C(Nc1cccnc1)c1ccccn1`, the figures for the inhibition in data set [1] and in data set [2] were 25.6% and 30.3%, respectively.

For `N#Cc1cccc(NC(=O)c2nc(C#N)cs2)n1`, the inhibition in data set [1] came out at 8.3%. Turning to `O=C(Nc1ccc(Cl)nc1Cl)c1ccccn1`, the inhibition in data set [1] is 3.85%; in data set [2] it was 35.4%. `O=C(Nc1cccc(F)c1)c1nc(Br)cs1`: the inhibition in [1] was found to be 13.7%.

On to `COc1ccc(NC(=O)c2cccc(Cl)n2)cn1`, for which the inhibition in [1] turned out to be 18.5%; in [2], 43.4%. Consider `Cc1cccc(C(=O)Nc2cccc(C#N)c2)n1`, for which the figures for the inhibition in data set [1] and in data set [2] were 18.4% and 68.1%, respectively. Consider `Cc1csc(C(=O)Nc2cccc(F)c2)n1`, for which the inhibition in data set [1] came to 3.1%.

As to `Cc1csc(C(=O)Nc2cccc(Cl)n2)n1`, the inhibition in [1] turned out to be 45%. On to `COc1cccc(C(=O)Nc2cccnc2)n1`, for which the inhibition came to 22.8% in data set [1] and 23.1% in data set [2]. On to `N#Cc1cccc(NC(=O)c2cccc(F)n2)c1`, for which the inhibition in data set [1] came out at 3.2%; in [2], 34%.

Consider `Cc1csc(C(=O)Nc2ccccn2)n1`, for which the inhibition in data set [1] was found to be 47.1%. Consider `O=C(Nc1cccc(Br)n1)c1nc(Br)cs1`, for which the inhibition in [1] turned out to be 19.8%. As for `O=C(Nc1cccc(Br)c1)c1nc(Br)cs1`, in [3], the 50% inhibitory concentration (IC50) is 274 nM. Besides, in data set [4], the remaining at 0.5 h, 1 µM is 37.3%. In addition, the inhibition at 1 µM on hERG (KCNH2) [5] was 29.3%. In addition, on hERG (KCNH2) [6], the inhibition at 10 µM worked out at 39.6%. Further, the inhibition in [1] was determined as 71.1%. For the same molecule, the activity at 10 µM came out at 86.3% at CYP2C19; 99% on CYP2C9; 38.3% on CYP1A2; 84.9% on CYP3A4; 102% on CYP2D6. The inhibition at 0.1 µM on hERG (KCNH2) [7] is 16.3%.

In the case of `O=C(Nc1cccc(Cl)n1)c1nc(Br)cs1`, the inhibition in data set [1] worked out at 60%. Consider `N#Cc1csc(C(=O)Nc2cccc(Cl)n2)n1`, for which the inhibition in data set [1] is -9.4%.
